Test results taken from the NIST ThermoML archive (doi:10.1016/j.jct.2017.04.009).

Test: xn = mol fraction of the nth substance listed
Details: Liquid, pressure decay method, x2 = 0

CCCCCCn1cc[n+](C)c1.O=S(=O)([O-])C(F)(F)F [1-hexyl-3-methylimidazolium trifluoromethanesulfonate] + FCF
binary diffusion coefficient (303.2 K, 98.2 kPa): 3.01e-10 m2/s
binary diffusion coefficient (313.2 K, 102 kPa): 4.27e-10 m2/s
binary diffusion coefficient (323.2 K, 99.3 kPa): 5.35e-10 m2/s
binary diffusion coefficient (333.2 K, 100.2 kPa): 6.82e-10 m2/s
binary diffusion coefficient (343.2 K, 100.4 kPa): 8.35e-10 m2/s
